In US12060349B2, “Glucosylceramide synthase inhibitors” (Genzyme Corporation, priority 2012, dated 2024) one finds IC50 data, which are given here for 17 compounds.

Assay [1] deals with T1, glucosylceramide synthase (Homo sapiens, UniProt Q16739).
T1 construct: Microsomes were isolated from A375 human melanoma cells; endogenous in cells; host or cells: A375 human melanoma cells (microsomal fraction, 100,000 g pellet)
T1 sequence (Q16739 1-394): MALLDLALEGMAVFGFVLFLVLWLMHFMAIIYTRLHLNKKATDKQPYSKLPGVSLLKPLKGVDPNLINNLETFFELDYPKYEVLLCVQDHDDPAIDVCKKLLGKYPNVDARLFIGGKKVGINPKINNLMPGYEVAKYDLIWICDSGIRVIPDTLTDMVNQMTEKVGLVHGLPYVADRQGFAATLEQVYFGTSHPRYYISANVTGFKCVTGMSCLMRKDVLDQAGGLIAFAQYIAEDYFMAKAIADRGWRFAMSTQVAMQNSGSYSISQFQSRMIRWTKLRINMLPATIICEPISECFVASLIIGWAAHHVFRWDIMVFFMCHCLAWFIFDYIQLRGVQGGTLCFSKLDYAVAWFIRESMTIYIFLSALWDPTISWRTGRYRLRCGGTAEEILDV
The assay is described as follows: microsomal assay measuring conversion of ceramide to glucosylceramide by HPLC (GCS IC50). The assay is classed as biochemical. The conditions noted are these: concentration causing 50% inhibition of glucosylceramide synthase activity. A digest of the protocol: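 IC50 is the compound concentration halving glucosylceramide synthase activity. Activity was measured in microsomes, with HPLC quantifying glucosylceramide formed from ceramide.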

The subject of assay [2] is GM3 expression on the cell surface, B16 mouse melanoma cells. Briefly: cell based phenotypic assay, cell surface GM3 by antibody mediated immunofluorescence, B16 (GM3 B16 IC50). Particulars: Mus musculus, 50% inhibition of GM3 expression on the cell surface. In a few lines:
(§1)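 Two melanoma lines, mouse B16 and human C32, were treated and surface GM3 quantified by antibody immunofluorescence for IC50. A parallel viability readout gives the concentration killing 50% of cells, with values over 10 indicating no cell death.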

In assay [3] the test system is GM3 expression on the cell surface, C32 human melanoma cells. The assay is described as follows: cell based phenotypic assay, cell surface GM3 by antibody mediated immunofluorescence, C32 (GM3 C32 IC50). Particulars: Homo sapiens, 50% inhibition of GM3 expression on the cell surface. In a few lines: as §1
The subject of assay [4] is B16 mouse melanoma cells. The assay is described as follows: cell viability in the B16 cell-based assay (Viability, B16 IC50). The conditions noted are these: Mus musculus. In a few lines: (§2)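 Cell death was scored within the cell-based GM3 experiment for each line. The viability value is the concentration producing 50% death, and numbers exceeding 10 signify no cytotoxicity.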

Assay [5] concerns C32 human melanoma cells. Briefly: cell viability in the C32 cell-based assay (Viability, C32 IC50). Particulars: Homo sapiens, concentration causing 50% cell death, values greater than 10 represent a lack of cell death. A digest of the protocol:
as §2

Where [6] appears, read: B16 mouse melanoma cells, read-out: GM3 B16 IC50.
Where [7] appears, read: C32 human melanoma cells, read-out: GM3 C32 IC50.
Where [8] appears, read: B16, B16 cells, concentration causing 50% cell death, values greater than 10 represent a lack of cell death, read-out: Viability, B16 IC50.
[9] abbreviates: C32, C32 cells, read-out: Viability, C32 IC50.
The mark [10] stands for this setting: read-out: GM3 B16 IC50, B16 mouse melanoma cells.
Where [11] appears, read: read-out: GM3 C32 IC50, C32 human melanoma cells.
The mark [12] stands for this setting: B16, read-out: Viability, B16 IC50.
The mark [13] stands for this setting: C32, read-out: Viability, C32 IC50, C32 cells.

Like-named read-outs stand apart in the source and are kept apart here.

In general, IC50 refers to the concentration that inhibits the measured activity by half. Regarding `CCC1(NC(=O)NC(C)(C)c2ccc(-c3ccc(S(=O)(=O)CC4CC4)cc3)cc2)CN2CCC1CC2` (stereo not shown) [Example 239, 1-(2-(4′-((Cyclopropylmethyl)sulfonyl)-[1,1′-biphenyl]-4-yl)propan-2-yl)-3-(3-ethylquinuclidin-3-yl)urea], the IC50 in assay [1] was 9.87 nM; in assay [2] (setting [6]) it was 28.5 nM; in assay [3] (setting [7]), 3.21 nM; in assay [4] (setting [8]) it was ≥ 10000 nM; in assay [5] (setting [9]) it was 1000 nM.
The corresponding values for `CC(C)(NC(=O)NC1(C)CN2CCC1CC2)c1ccc(-c2ccc(S(=O)(=O)CC3CC3)cc2)cc1` (stereo not shown) [Example 240, 1-(2-(4′-((Cyclopropylmethyl)sulfonyl)-[1,1′-biphenyl]-4-yl)propan-2-yl)-3-(3-methylquinuclidin-3-yl)urea] are 13.3 nM, 86.5 nM, 5.97 nM, ≥ 10000 nM and 1000 nM.
Turning to `CC(C)(NC(=O)OC1CCN2CCC1CC2)c1ccc(-c2ccc(S(=O)(=O)CC3CC3)cc2)cc1` (stereo not shown) [Example 241, 1-Azabicyclo[3.2.2]nonan-4-yl (2-(4′-((cyclopropylmethyl)sulfonyl)-[1,1′-biphenyl]-4-yl)propan-2-yl)carbamate], the half-inhibitory concentration (IC50) in assay [1] was 4.23 nM; in assay [2] (setting [6]) it was 12.2 nM; in assay [3] (setting [7]), 1.44 nM; in assay [4] (setting [8]) it was ≥ 10000 nM; in assay [5] (setting [9]), 3160 nM.
Consider `COCCCS(=O)(=O)c1ccc(-c2ccc(C(C)(C)NC(=O)OC3CN4CCC3CC4)cc2)cc1` (stereo not shown) [Example 242, Quinuclidin-3-yl (2-(4′-((3-methoxypropyl)sulfonyl)-[1,1′-biphenyl]-4-yl)propan-2-yl)carbamate], for which the half-inhibitory concentration (IC50) in assay [1] was 32.5 nM; in assay [2] (setting [10]) it was 82.5 nM; in assay [3] (setting [11]) it was 10.2 nM; in assay [4] (setting [12]), ≥ 10000 nM; in assay [5] (setting [13]), 3160 nM.
For the compound `CCC1(NC(=O)NC(C)(C)c2ccc(-c3ccc(S(=O)(=O)CCCOC)cc3)cc2)CN2CCC1CC2` (stereo not shown) [Example 243, 1-(3-Ethylquinuclidin-3-yl)-3-(2-(4′-((3-methoxypropyl)sulfonyl)-[1,1′-biphenyl]-4-yl)propan-2-yl)urea], the IC50 in assay [1] was 32.8 nM; in assay [2] (setting [6]), 57.3 nM; in assay [3] (setting [7]), 7.49 nM; in assay [4] (setting [8]) it was ≥ 10000 nM; in assay [5] (setting [9]) it was 3160 nM.
The corresponding values for `CCCC1(NC(=O)NC(C)(C)c2ccc(-c3ccc(S(=O)(=O)CCCOC)cc3)cc2)CN2CCC1CC2` (stereo not shown) [Example 244, 1-(2-(4′-((3-Methoxypropyl)sulfonyl)-[1,1′-biphenyl]-4-yl)propan-2-yl)-3-(3-propylquinuclidin-3-yl)urea] are 37.1 nM, 34.1 nM, 6.99 nM, ≥ 10000 nM and 3160 nM.
Regarding `CC(C)(C)CCS(=O)(=O)c1ccc(-c2ccc(C(C)(C)NC(=O)OC3CN4CCC3CC4)cc2)cc1` (stereo not shown) [Example 245, Quinuclidin-3-yl (2-(4′-((3,3-dimethylbutyl)sulfonyl)-[1,1′-biphenyl]-4-yl)propan-2-yl)carbamate], the IC50 is 1.85 nM in assay [1]; 66.3 nM in assay [2] (setting [10]); 0.716 nM in assay [3] (setting [11]); 6740 nM in assay [4] (setting [12]); 316 nM in assay [5] (setting [13]).
In the case of `CC(C)(C)CCS(=O)(=O)c1ccc(-c2ccc(C(C)(C)NC(=O)NC3(C)CN4CCC3CC4)cc2)cc1` (stereo not shown) [Example 246, 1-(2-(4′-((3,3-Dimethylbutyl)sulfonyl)-[1,1′-biphenyl]-4-yl)propan-2-yl)-3-(3-methylquinuclidin-3-yl)urea], the IC50 in assay [1] is 1.7 nM; in assay [2] (setting [6]), 11.4 nM; in assay [3] (setting [7]), 0.624 nM; in assay [4] (setting [8]), ≥ 10000 nM; in assay [5] (setting [9]), 1000 nM.
The corresponding values for `CCC1(NC(=O)NC(C)(C)c2ccc(-c3ccc(S(=O)(=O)CCC(C)(C)C)cc3)cc2)CN2CCC1CC2` (stereo not shown) [Example 247, 1-(2-(4′-((3,3-Dimethylbutyl)sulfonyl)-[1,1′-biphenyl]-4-yl)propan-2-yl)-3-(3-ethylquinuclidin-3-yl)urea] are 1.66 nM, 4.28 nM, 0.396 nM, 6640 nM and 1000 nM.
As for `CC(C)(C)CCS(=O)(=O)c1ccc(-c2ccc(C(C)(C)NC(=O)NC3(C)CCN4CCC3CC4)cc2)cc1` (stereo not shown) [Example 248, 1-(2-(4′-((3,3-Dimethylbutyl)sulfonyl)-[1,1′-biphenyl]-4-yl)propan-2-yl)-3-(4-methyl-1-azabicyclo[3.2.2]nonan-4-yl)urea], the IC50 was 0.804 nM in assay [1]; 6.84 nM in assay [2] (setting [6]); 0.315 nM in assay [3] (setting [7]); 7730 nM in assay [4] (setting [8]); 1000 nM in assay [5] (setting [9]).
`COCC1(CS(=O)(=O)c2ccc(-c3ccc(C(C)(C)NC(=O)OC4CN5CCC4CC5)cc3)cc2)CC1` (stereo not shown) [Example 249, Quinuclidin-3-yl (2-(4′-(((1-(methoxymethyl)cyclopropyl)methyl)sulfonyl)-[1,1′-biphenyl]-4-yl)propan-2-yl)carbamate]: the IC50 in assay [1] is 53.5 nM; in assay [2] (setting [10]) it was 247 nM; in assay [3] (setting [11]), 5.82 nM; in assay [4] (setting [12]) it was ≥ 10000 nM; in assay [5] (setting [13]), 2150 nM.
For `CCC1(NC(=O)NC(C)(C)c2ccc(-c3ccc(S(=O)(=O)CC4(COC)CC4)cc3)cc2)CN2CCC1CC2` (stereo not shown) [Example 250, 1-(3-Ethylquinuclidin-3-yl)-3-(2-(4′-(((1-(methoxymethyl)cyclopropyl)methyl)sulfonyl)-[1,1′-biphenyl]-4-yl)propan-2-yl)urea], the IC50 in assay [1] was 20.1 nM; in assay [2] (setting [6]), 84.5 nM; in assay [3] (setting [7]), 4.41 nM; in assay [4] (setting [8]), ≥ 10000 nM; in assay [5] (setting [9]), 1000 nM.
With `CCCC1(NC(=O)NC(C)(C)c2ccc(-c3ccc(S(=O)(=O)CC4(COC)CC4)cc3)cc2)CN2CCC1CC2` (stereo not shown) [Example 251, 1-(2-(4′-(((1-(Methoxymethyl)cyclopropyl)methyl)sulfonyl)-[1,1′-biphenyl]-4-yl)propan-2-yl)-3-(3-propylquinuclidin-3-yl)urea], the IC50 was 21 nM in assay [1]; 47.5 nM in assay [2] (setting [6]); 5.01 nM in assay [3] (setting [7]); ≥ 10000 nM in assay [4] (setting [8]); 1000 nM in assay [5] (setting [9]).
Regarding `CNC(=O)c1ccc(-c2ccc(C(C)(C)NC(=O)OC3CN4CCC3CC4)cc2)cc1` (stereo not shown) [Example 252, Quinuclidin-3-yl (2-(4′-(methylcarbamoyl)-[1,1′-biphenyl]-4-yl)propan-2-yl)carbamate], the IC50 was 1840 nM in assay [1]; 1500 nM in assay [2] (setting [10]); 220 nM in assay [3] (setting [11]); ≥ 10000 nM in assay [4] (setting [12]); ≥ 10000 nM in assay [5] (setting [13]).
For `CNC(=O)c1ccc(-c2ccc(C(C)(C)NC(=O)NC3(C)CN4CCC3CC4)cc2)cc1` (stereo not shown) [Example 253, N-Methyl-4′-(2-(3-(3-methylquinuclidin-3-yl)ureido)propan-2-yl)-[1,1′-biphenyl]-4-carboxamide], the IC50 in assay [1] was 751 nM; in assay [2] (setting [6]), 2000 nM; in assay [3] (setting [7]), 201 nM; in assay [4] (setting [8]), 2000 nM; in assay [5] (setting [9]) it was 2000 nM.
As to `CNC(=O)c1ccc(-c2ccc(C(C)(C)NC(=O)OC3CCN4CCC3CC4)cc2)cc1` (stereo not shown) [Example 254, 1-Azabicyclo[3.2.2]nonan-4-yl (2-(4′-(methylcarbamoyl)-[1,1′-biphenyl]-4-yl)propan-2-yl)carbamate], the IC50 in assay [1] is 600 nM; in assay [2] (setting [6]) it was 650 nM; in assay [3] (setting [7]), 63.8 nM; in assay [4] (setting [8]), ≥ 10000 nM; in assay [5] (setting [9]) it was ≥ 10000 nM.
With `CNC(=O)c1ccc(-c2ccc(C(C)(C)NC(=O)NC3(C)CCN4CCC3CC4)cc2)cc1` (stereo not shown) [Example 255, N-Methyl-4′-(2-(3-(4-methyl-1-aza-bicyclo[3.2.2]nonan-4-yl)ureido)propan-2-yl)biphenyl-4-carboxamide], the IC50 in assay [1] is 46.9 nM; in assay [2] (setting [6]) it was 3420 nM; in assay [3] (setting [7]), 20.1 nM; in assay [4] (setting [8]), 6790 nM; in assay [5] (setting [9]), 1000 nM.
